Critical pressure and Critical temperature data for four molecules are collected here from the NIST ThermoML archive (doi:10.1016/j.fluid.2012.03.021).

The conditions of this data set: Liquid; for Critical pressure: Direct measurement; for Critical temperature: Pulse Heating.

± gives the expanded uncertainty stated by the source.

Consider `CC(=O)c1ccc[cH-]1.[Fe+2].c1cc[cH-]c1` [acetylferrocene], for which the Critical pressure is on record as 3280 ± 260 kPa and the Critical temperature came to 847 ± 26 K.

With `O=C(c1ccccc1)c1ccc[cH-]1.[Fe+2].c1cc[cH-]c1` [benzoylferrocene], the Critical pressure came out at 1590 ± 120 kPa and the Critical temperature was 886 ± 26 K.

`[CH]1C=CC=C1.[CH]1C=CC=C1.[Fe]` [ferrocene]: the Critical pressure amounted to 3610 ± 200 kPa and the Critical temperature is 785 ± 16 K.

On to `CCCC[c-]1cccc1.[Fe+2].c1cc[cH-]c1` [butylferrocene], for which the Critical pressure came to 2180 ± 180 kPa and the Critical temperature worked out at 784 ± 24 K.
